Measurements taken from patent publication US20130085283A1, “GERANYLGERANYLACETONE DERIVATIVES” (Coyote Pharmaceuticals, Inc., priority 2011, published 2013).
Marks after values point to notes of the source that are not given here.

Legend:
Neuro2A cells = assay: In vitro neuroprotection: Neuro2A cells cultured with GGA derivative with or without GGTI-298, cells that extended neurites counted; assay type: cell-based, mouse; details: for Activity 1 μM: compound at 1 μM; for Activity 1 μM / Activity 1 nm: cells that extended neurites counted, normalized by the activity of CNS-102 (GGA trans-isomer); for Activity 1 nm: compound at 1 nm (so in the source)
Method: Neuro2A cells were cultured with a GGA derivative in the presence or absence of an inhibitor against a G-protein (GGTI-298). After differentiation was induced, cells that extended neurites were counted as an activity of the compound. The activities are shown in arbitrary units and were normalized by the activity of CNS-102 (GGA trans-isomer) in each parallel experiments.

Sprague-Dawley rats = assay: Neurodegeneration induced by Kainic acid in rats (hippocampus CA3 neuron damage, seizure behavior scores); assay type: in vivo, rat; details: oral dosing, Kainic acid injected
Method: The compounds and the compositions of this invention are tested in vivo for their ability to alleviate neurodegenerations induced by Kainic acid. See, for example, PCT Pat. App. No. PCT/US2011/050071, supra. A compound or composition of this invention is orally dosed to Sprague-Dawley rats, and Kainic acid is injected. Seizure behaviors are observed and scored (see, e.g., R. J. Racine, Modification of seizure activity by electrical stimulation: II. Motor seizure, Electroencephalogr. Clin. Neurophysiol. 32 (1972) 281-294). Brain tissues of rats are sectioned on histology slides, and neurons in hippocampus tissues are stained by Nissl.
The indicated compounds or vehicle control were orally dosed to Sprague-Dawley rats, and Kainic acid was injected. Seizure behaviors were observed and scored (Ref. R. J. Racine, Modification of seizure activity by electrical stimulation: 11. Motor seizure, Electroencephalogr. Clin. Neurophysiol. 32 (1972) 281-294. Modifications were made for the methods). Brain tissues of rats were sectioned on histology slides, and neurons in hippocampus tissues were stained by Nissl. Neurons damaged by Kainic acid (mean of hippocampus CA3 neurons damaged) and behavior scores (mean of seizure behavior scores) were quantified.

HSP70 [1] = assay: Expression of heat shock proteins in vitro (Western blotting of Neuro2A lysates); assay type: cell-based; details: Mus musculus, N2a, retinoic acid differentiation, GGTI-298, 24 hrs; for fold induction at 0.1 µM: 100 nM, signal in the absence of the compounds normalized as 1, read-out: HSP70 Western signal, Compound Dose 100 nM; for fold induction at 1 µM: signal in the absence of the compounds normalized as 1, read-out: HSP70 Western signal, Compound Dose 1 μM; for fold induction at 10 µM: signal in the absence of the compounds normalized as 1, read-out: HSP70 Western signal, Compound Dose 10 μM
Method: Mouse Neuro2A neuroblastoma cells were cultured in DMEM supplemented with 10% FBS for 24 hrs. The cells were treated with various concentrations of the indicated compounds. Then differentiation was induced by retinoic acid in DMEM supplemented with 2% FBS. An inhibitor against a G-protein, GGTI-298, was incubated. After 24 hrs incubation, cells were harvested, and lysates were prepared from the harvested cells. Western blotting analysis was done for the same protein amounts of these lysates, and western signals were detected by chemiluminescence and quantified in parallel with comparisons of those detected in the absence of the compound. Western signals in the absence of the compounds were normalized as 1.

HSP70 [2] = assay: HSP70 protein in rat brain lysates by Western blotting after oral dosing; assay type: in vivo
Method: The compounds tabulated below or vehicle controls were orally dosed at 12 mg/kg to Sprague-Dawley rats. Rat brain tissues were extracted in various time points after the oral dosing. Lysates were prepared from the harvested brain tissues. Western blotting analysis was done for the same protein amounts of these lysates, and western signals of HSP70 were detected by chemiluminescence and quantified in parallel with comparisons of those detected at time 0 hr. Western signals at time 0 hr were normalized as 100.

CCOC(=O)C(C/C=C(\C)CC/C=C(\C)CCC=C(C)C)C(C)=O (stereo not shown)
Activity 1 μM (Neuro2A cells): 259* arbitrary units

CCC(=O)CC/C=C(\C)CC/C=C(\C)CC/C=C(\C)CCC=C(C)C
Activity 1 nm (Neuro2A cells): 186 arbitrary units

CCOC(=O)C(C/C=C(\C)CC/C=C(\C)CC/C=C(\C)CCC=C(C)C)C(=O)C12CC3CC(CC(C3)C1)C2 (stereo not shown)
Activity 1 nm (Neuro2A cells): 145 arbitrary units

CCOC(=O)C(C/C=C(\C)CC/C=C(\C)CC/C=C(\C)CCC=C(C)C)C(=O)C(C)C (stereo not shown)
Activity 1 nm (Neuro2A cells): 173 arbitrary units

CCOC(=O)C(CC=C1CCCCC1)C(C)=O (stereo not shown)
Activity 1 μM (Neuro2A cells): 162* arbitrary units

CCOC(=O)/C=C(\C)CCC=C1CCCCC1
Activity 1 μM (Neuro2A cells): 161* arbitrary units

C/C(=C\CO)CCC=C1CCCCC1
Activity compared with control experiment with no addition of compound (Neuro2A cells; in words, concentration not given): * Under the conditions tested, this compound was not found to have activity beyond that of the control for this assay.

CCOC(=O)C=C1CCCCC1
Activity 1 μM (Neuro2A cells): 240* arbitrary units

CC(C)=CCC/C(C)=C/CC/C(C)=C/CC/C(C)=C/CC/C(C)=N/OCc1ccccc1
Activity 1 μM (Neuro2A cells): 287 arbitrary units

CCO/N=C(\C)CC/C=C(\C)CC/C=C(\C)CC/C=C(\C)CCC=C(C)C
Mean of Hippocampus CA3 neurons damaged (Sprague-Dawley rats; Vehicle 17.59 in this table): 14.66 Arbitrary units

CC(C)=CCC/C(C)=C/CC/C(C)=C/CC/C(C)=C/CC/C(C)=C/CCC(=O)C1CC1
Mean of Hippocampus CA3 neurons damaged (Sprague-Dawley rats; Vehicle 6.59 in this table): 5.98 Arbitrary units

CC(C)=CCC/C(C)=C/CC/C(C)=C/CC/C(C)=C/C=O
Mean of Hippocampus CA3 neurons damaged (Sprague-Dawley rats; Vehicle 1.72 in this table): 1.58 Arbitrary units

CC(C)=CCC/C(C)=C/CC/C(C)=C/CC/C(C)=C/CC/C(C)=N/OCC(=O)O
Mean of Seizure behaviors scores (Sprague-Dawley rats; Vehicle 26.68 in this table): 13.37 Arbitrary units

CC(C)=CCC/C(C)=C/CC/C(C)=C/CCC(C)OC(=O)NCC1CCCCC1 (stereo not shown)
fold induction at 0.1 µM (HSP70 [1]): 1.55 | fold induction at 1 µM (HSP70 [1]): 1.49 | fold induction at 10 µM (HSP70 [1]): 2.53

CCC(=O)CC/C=C(\CC)CC/C=C(\C)CC/C=C(\C)CCC=C(C)C
fold induction at 0.1 µM (HSP70 [1]): 1.79 | fold induction at 1 µM (HSP70 [1]): 6.08 | fold induction at 10 µM (HSP70 [1]): 4.76

CC(C)=CCC/C(C)=C/CC/C(C)=C/CC/C(C)=C/CC1CCCCC1=O (stereo not shown) [drawing 150]
Mean of Hippocampus CA3 neurons damaged (Sprague-Dawley rats; Vehicle 15.61 in this table): 2.64 Arbitrary units

CC(=O)CC/C=C(\C)CC/C=C(\C)CC/C=C(\C)CCC=C(C)C [drawing 151]
Mean of Hippocampus CA3 neurons damaged (Sprague-Dawley rats; Vehicle 15.61 in this table): 9.46 Arbitrary units

CC(C)=CCC/C(C)=C/CC/C(C)=C/CC/C(C)=C/CCC1(C)OCCO1 [drawing 152]
Mean of Hippocampus CA3 neurons damaged (Sprague-Dawley rats; Vehicle 15.31 in this table): 12.11 Arbitrary units

CCOC(=O)C(C/C=C(\C)CC/C=C(\C)CC/C=C(\C)CCC=C(C)C)C(C)=O (stereo not shown) [drawing 153]
Mean of Hippocampus CA3 neurons damaged (Sprague-Dawley rats; Vehicle ~7.74 in this table): ~5.57 Arbitrary units

CC(=O)CC/C=C(\C)CC/C=C(\C)CCC=C(C)C [drawing 154]
Mean of Hippocampus CA3 neurons damaged (Sprague-Dawley rats; Vehicle 19.95 in this table): 10.61 Arbitrary units

CC/C(=C\CCC(=O)C12CC3CC(CC(C3)C1)C2)CC/C=C(\C)CC/C=C(\C)CCC=C(C)C [drawing 155]
Mean of Hippocampus CA3 neurons damaged (Sprague-Dawley rats; Vehicle 19.95 in this table): 12.54 Arbitrary units

COC(=O)C(NC(=O)OC(C)CC/C=C(\C)CC/C=C(\C)CCC=C(C)C)C(C)C (stereo not shown) [drawing 156]
Mean of Hippocampus CA3 neurons damaged (Sprague-Dawley rats; Vehicle 9.76 in this table): 6.61 Arbitrary units

CC(=O)CC/C=C(\C)CC/C=C(\C)CC/C=C(\C)CC/C=C(\C)CCC=C(C)C [drawing 158]
Mean of Hippocampus CA3 neurons damaged (Sprague-Dawley rats; Vehicle 12.71 in this table): 2.22 Arbitrary units

CC(C)=CCC/C(C)=C/CC/C(C)=C/CC/C(C)=C/COC(=O)C1CCCCC1 [drawing 159]
Mean of Hippocampus CA3 neurons damaged (Sprague-Dawley rats; Vehicle 6.59 in this table): 1.55 Arbitrary units

CC(C)=CCC/C(C)=C/CC/C(C)=C/CC/C(C)=C/CCC(=O)C(C)(C)C [drawing 161]
Mean of Hippocampus CA3 neurons damaged (Sprague-Dawley rats; Vehicle 12.91 in this table): 8.08 Arbitrary units

CCCCCNC(=O)OC(C)CC/C=C(\C)CC/C=C(\C)CCC=C(C)C (stereo not shown) [drawing 162]
Mean of Hippocampus CA3 neurons damaged (Sprague-Dawley rats; Vehicle 7.09 in this table): 14.73 Arbitrary units

CC(C)=CCC/C(C)=C/CC/C(C)=C/CC/C(C)=C/CCC1(C)OCCO1 [drawing 165]
Mean of Seizure behaviors scores (Sprague-Dawley rats; Vehicle 41.56 in this table): 16.35 Arbitrary units

CC(C)=CCC/C(C)=C/CC/C(C)=C/CC/C(C)=C/CCC(=O)C(C)(C)C [drawing 166]
Mean of Seizure behaviors scores (Sprague-Dawley rats; Vehicle 19.75 in this table): 11.25 Arbitrary units

CC(C)=CCC/C(C)=C/CC/C(C)=C/CC/C(C)=C/COC(=O)C1CCCCC1 [drawing 167]
Mean of Seizure behaviors scores (Sprague-Dawley rats; Vehicle 26.31 in this table): 18.68 Arbitrary units

CCOC(=O)C(C/C=C(\C)CC/C=C(\C)CC/C=C(\C)CCC=C(C)C)C(C)=O (stereo not shown) [drawing 168]
Mean of Seizure behaviors scores (Sprague-Dawley rats; Vehicle 13.37 in this table): 3.83 Arbitrary units

CC(C)=CCC/C(C)=C/CC/C(C)=C/CC/C(C)=C/COC(=O)C1CCCCC1 [drawing 169]
fold induction at 0.1 µM (HSP70 [1]): 2.53 | fold induction at 1 µM (HSP70 [1]): 2.34 | fold induction at 10 µM (HSP70 [1]): 2.53

CCCCCNC(=O)OC(C)CC/C=C(\C)CC/C=C(\C)CCC=C(C)C (stereo not shown) [drawing 170]
fold induction at 0.1 µM (HSP70 [1]): 1.16 | fold induction at 1 µM (HSP70 [1]): 1.26 | fold induction at 10 µM (HSP70 [1]): 1.93

CC(=O)CC/C=C(\C)CC/C=C(\C)CC/C=C(\C)CC/C=C(\C)CCC=C(C)C [drawing 171]
fold induction at 0.1 µM (HSP70 [1]): 1.92 | fold induction at 1 µM (HSP70 [1]): 2.78 | fold induction at 10 µM (HSP70 [1]): 3.53

CC(C)=CCC/C(C)=C/CC/C(C)=C/CC/C(C)=C/CCC1(C)OCCO1 [drawing 172]
fold induction at 0.1 µM (HSP70 [1]): 3.16 | fold induction at 1 µM (HSP70 [1]): 3.5 | fold induction at 10 µM (HSP70 [1]): 3.49

CC(C)=CCC/C(C)=C/CC/C(C)=C/CC/C(C)=C/CC1CCCCC1=O (stereo not shown) [drawing 173]
fold induction at 0.1 µM (HSP70 [1]): 3.85 | fold induction at 1 µM (HSP70 [1]): 3.78 | fold induction at 10 µM (HSP70 [1]): 2.25

CC(=O)CC/C=C(\C)CC/C=C(\C)CCC=C(C)C [drawing 175]
fold induction at 0.1 µM (HSP70 [1]): 1.87 | fold induction at 1 µM (HSP70 [1]): 5.86 | fold induction at 10 µM (HSP70 [1]): 1.79

CC/C(=C\CCC(=O)C12CC3CC(CC(C3)C1)C2)CC/C=C(\C)CC/C=C(\C)CCC=C(C)C [drawing 177]
fold induction at 0.1 µM (HSP70 [1]): 1.71 | fold induction at 1 µM (HSP70 [1]): 2 | fold induction at 10 µM (HSP70 [1]): 1

CC(=O)CC/C=C(\C)CC/C=C(\C)CC/C=C(\C)CCC=C(C)C [drawing 178]
fold induction at 0.1 µM (HSP70 [1]): 1.38 | fold induction at 1 µM (HSP70 [1]): 2.05 | fold induction at 10 µM (HSP70 [1]): 2.14

COC(=O)C(NC(=O)OC(C)CC/C=C(\C)CC/C=C(\C)CCC=C(C)C)C(C)C (stereo not shown) [drawing 179]
fold induction at 0.1 µM (HSP70 [1]): 1.26 | fold induction at 1 µM (HSP70 [1]): 1.07 | fold induction at 10 µM (HSP70 [1]): 1.29

CC(C)=CCC/C(C)=C/CC/C(C)=C/CC/C(C)=C/CC1CCCCC1=O (stereo not shown) [drawing 180]
Western signal of HSP70 in brain (HSP70 [2]; 12 hr after oral 12 mg/kg, time 0 hr = 100, Vehicle 102%): 116% | Western signal of HSP70 in brain (HSP70 [2]; 48 hr after oral 12 mg/kg, time 0 hr = 100, Vehicle 105%): 114% | Western signal of HSP70 in brain (HSP70 [2]; 96 hr after oral 12 mg/kg, time 0 hr = 100, Vehicle 99%): 97%
